Patent publication US12636270B2, “Levothyroxine liquid formulations” (Fresenius Kabi USA, LLC, priority 2016, dated 2026)
Read-outs that look alike come from different tables or passages of the source.

Legend:
[1] = 4 W, 20 mcg/mL, tromethamine 10 mg/mL, 5.4 mg/mL sodium chloride in water
Protocol: (§1) Separate samples containing 20 mcg/mL levothyroxine sodium, 10 mg/mL tromethamine, 5.4 mg/mL sodium chloride, and sodium iodide at a concentration of 280 mcg/mL, 140 mcg/mL, or 6 mcg/mL in water were adjusted to various pH levels. 5 mL of each sample was filled into 10 cc flint molded vials, and the vials were stoppered with 20 mm stoppers under nitrogen.
The HPLC conditions were as follows: • Column: ACE Excel 3 C18-PFP, 4.6×150 mm HPLC column • Mobile Phase A: Sodium heptanesulfonate/Acetonitrile/Water/Methanol/H3PO4 (4.0 g/800 mL/1600 mL/1600 mL/4.0 mL) • Mobile Phase B: Sodium heptanesulfonate/Acetonitrile/Water/Methanol/H3PO4 (4.0 g/2000 mL/200 mL/1800 mL/4.0 mL) • Diluent: 0.01 N NaOH • Column temperature: 25° C. • Flow rate: 1.5 mL/min • Injection volume: 80 μL • Autosampler temperature: 5° C. • Detection: UV at 225 nm • Separation mode: Gradient Gradient Program: […]

[2] = 20 mcg/mL, tromethamine 10 mg/mL, 5.4 mg/mL sodium chloride in water
Protocol: as §1
The samples also were stored at temperatures of 25° C. or 40° C. for 2M or 4M prior to analysis by HPLC.
The HPLC conditions were as follows: • Column: Phenomenex Kinetex 2.6 μm C18, 4.6×150 mm HPLC column • Mobile Phase A: 0.05 M Sulfamic Acid, pH 2.0 • Mobile Phase B: Acetonitrile • Diluent: 10% Mobile Phase A in Methanol: Acetonitrile: Mobile Phase A (1000 mL: 300 mL: 700 mL) • Column temperature: 27° C. • Flow rate: 1.2 mL/min • Injection volume: 50 μL • Autosampler temperature: 25° C. • Detection: UV at 225 nm • Separation mode: Gradient Gradient Program: […]

[3] = 25° C., NaI 140 mcg/mL, pH 10.5
[4] = 25° C., NaI 280 mcg/mL, pH 10.5
[5] = 55° C., NaI 140 mcg/mL, pH 10.5
[6] = 55° C., NaI 280 mcg/mL, pH 10.5
[7] = 25° C., 2 M, NaI 6 mcg/mL, pH 10.5
[8] = 25° C., 2 M, NaI 140 mcg/mL, pH 9.5
[9] = 25° C., 2 M, NaI 140 mcg/mL, pH 10
[10] = 25° C., 2 M, NaI 140 mcg/mL, pH 10.5
[11] = 25° C., 2 M, NaI 280 mcg/mL, pH 9.5
[12] = 25° C., 2 M, NaI 280 mcg/mL, pH 10
[13] = 25° C., 2 M, NaI 280 mcg/mL, pH 10.5
[14] = 25° C., 4 M, NaI 6 mcg/mL, pH 10.5
[15] = 25° C., 4 M, NaI 140 mcg/mL, pH 9.5
[16] = 25° C., 4 M, NaI 140 mcg/mL, pH 10
[17] = 25° C., 4 M, NaI 140 mcg/mL, pH 10.5
[18] = 25° C., 4 M, NaI 280 mcg/mL, pH 9.5
[19] = 25° C., 4 M, NaI 280 mcg/mL, pH 10
[20] = 25° C., 4 M, NaI 280 mcg/mL, pH 10.5
[21] = 40° C., 2 M, NaI 6 mcg/mL, pH 10.5
[22] = 40° C., 2 M, NaI 140 mcg/mL, pH 9.5
[23] = 40° C., 2 M, NaI 140 mcg/mL, pH 10
[24] = 40° C., 2 M, NaI 140 mcg/mL, pH 10.5
[25] = 40° C., 2 M, NaI 280 mcg/mL, pH 9.5
[26] = 40° C., 2 M, NaI 280 mcg/mL, pH 10
[27] = 40° C., 2 M, NaI 280 mcg/mL, pH 10.5
[28] = 40° C., 4 M, NaI 6 mcg/mL, pH 10.5
[29] = 40° C., 4 M, NaI 140 mcg/mL, pH 9.5
[30] = 40° C., 4 M, NaI 140 mcg/mL, pH 10
[31] = 40° C., 4 M, NaI 140 mcg/mL, pH 10.5
[32] = 40° C., 4 M, NaI 280 mcg/mL, pH 9.5
[33] = 40° C., 4 M, NaI 280 mcg/mL, pH 10
[34] = 40° C., 4 M, NaI 280 mcg/mL, pH 10.5

N[C@@H](Cc1cc(I)c(Oc2cc(I)c(O)c(I)c2)c(I)c1)C(=O)[O-].[Na+] [Levothyroxine Na, 4-(4-hydroxy-3,5-diiodophenoxy)-3,5-diiodo-L-phenylalanine sodium]
% AOII ([1]; 25° C., NaI 6 mcg/mL, pH 10.5): 0.33%
% total impurities ([1]; 25° C., NaI 6 mcg/mL, pH 10.5): 1.9%
% AOII ([1]; 25° C., NaI 140 mcg/mL, pH 9.5): 0.52%
% total impurities ([1]; 25° C., NaI 140 mcg/mL, pH 9.5): 1.51%
% AOII ([1]; 25° C., NaI 140 mcg/mL, pH 10): 0.55%
% total impurities ([1]; 25° C., NaI 140 mcg/mL, pH 10): 1.64%
% AOII [1, 3]: 0.6%
% total impurities [1, 3]: 1.75%
% AOII ([1]; 25° C., NaI 280 mcg/mL, pH 9.5): 0.56%
% total impurities ([1]; 25° C., NaI 280 mcg/mL, pH 9.5): 1.58%
% AOII ([1]; 25° C., NaI 280 mcg/mL, pH 10): 0.55%
% total impurities ([1]; 25° C., NaI 280 mcg/mL, pH 10): 1.61%
% AOII [1, 4]: 0.57%
% total impurities [1, 4]: 1.66%
% AOII ([1]; 55° C., NaI 6 mcg/mL, pH 10.5): 0.99%
% total impurities ([1]; 55° C., NaI 6 mcg/mL, pH 10.5): 3.5%
% AOII ([1]; 55° C., NaI 140 mcg/mL, pH 9.5): 0.59%
% total impurities ([1]; 55° C., NaI 140 mcg/mL, pH 9.5): 3.6%
% AOII ([1]; 55° C., NaI 140 mcg/mL, pH 10): 0.61%
% total impurities ([1]; 55° C., NaI 140 mcg/mL, pH 10): 2.86%
% AOII [1, 5]: 0.53%
% total impurities [1, 5]: 2.49%
% AOII ([1]; 55° C., NaI 280 mcg/mL, pH 9.5): 0.53%
% total impurities ([1]; 55° C., NaI 280 mcg/mL, pH 9.5): 3.24%
% AOII ([1]; 55° C., NaI 280 mcg/mL, pH 10): 0.54%
% total impurities ([1]; 55° C., NaI 280 mcg/mL, pH 10): 2.76%
% AOII [1, 6]: 0.53%
% total impurities [1, 6]: 2.43%
% AOII [2, 7]: 0.46%
% total impurities [2, 7]: 1.85%
% AOII [2, 8]: 0.09%
% Liothyronine [2, 8]: 0.29%
% total impurities [2, 8]: 0.76%
% AOII [2, 9]: 0.10%
% total impurities [2, 9]: 0.77%
% AOII [2, 10]: 0.12%
% Liothyronine [2, 10]: 0.24%
% total impurities [2, 10]: 0.88%
% AOII [2, 11]: 0.11%
% total impurities [2, 11]: 0.81%
% AOII [2, 12]: 0.12%
% Liothyronine [2, 12]: 0.24%
% total impurities [2, 12]: 0.8%
% AOII [2, 13]: 0.11%
% Liothyronine [2, 13]: 0.23%
% total impurities [2, 13]: 0.85%
% AOII [2, 14]: 1.21%
% total impurities [2, 14]: 2.81%
% AOII [2, 15]: 0.18%
% Liothyronine [2, 15]: 0.35%
% total impurities [2, 15]: 1.00%
% AOII [2, 16]: 0.17%
% total impurities [2, 16]: 0.93%
% AOII [2, 17]: 0.17%
% total impurities [2, 17]: 0.94%
% AOII [2, 18]: 2.14%
% Liothyronine [2, 18]: 0.35%
% total impurities [2, 18]: 3.26%
% AOII [2, 19]: 0.17%
% total impurities [2, 19]: 0.93%
% AOII [2, 20]: 0.11%
% total impurities [2, 20]: 1.04%
% AOII [2, 21]: 0.91%
% Liothyronine [2, 21]: 0.43%
% total impurities [2, 21]: 2.5%
% AOII [2, 22]: 0.14%
% Liothyronine [2, 22]: 0.88%
% total impurities [2, 22]: 1.42%
% AOII [2, 23]: 0.14%
% Liothyronine [2, 23]: 0.55%
% total impurities [2, 23]: 1.18%
% AOII [2, 24]: 0.15%
% Liothyronine [2, 24]: 0.41%
% total impurities [2, 24]: 1.09%
% AOII [2, 25]: 0.13%
% Liothyronine [2, 25]: 0.9%
% total impurities [2, 25]: 1.56%
% AOII [2, 26]: 0.13%
% Liothyronine [2, 26]: 0.55%
% total impurities [2, 26]: 1.2%
% AOII [2, 27]: 0.17%
% Liothyronine [2, 27]: 0.39%
% total impurities [2, 27]: 1.07%
% AOII [2, 28]: 1.45%
% Liothyronine [2, 28]: 0.6%
% total impurities [2, 28]: 3.51%
% AOII [2, 29]: 0.72%
% Liothyronine [2, 29]: 1.3%
% total impurities [2, 29]: 2.84%
% AOII [2, 30]: 0.92%
% Liothyronine [2, 30]: 0.86%
% total impurities [2, 30]: 2.73%
% AOII [2, 31]: 0.69%
% Liothyronine [2, 31]: 0.59%
% total impurities [2, 31]: 2.14%
% AOII [2, 32]: 0.52%
% Liothyronine [2, 32]: 1.23%
% total impurities [2, 32]: 2.76%
% AOII [2, 33]: 1.38%
% Liothyronine [2, 33]: 0.84%
% total impurities [2, 33]: 3.23%
% AOII [2, 34]: 1.07%
% Liothyronine [2, 34]: 0.58%
% total impurities [2, 34]: 2.72%
